Test results reported in ChEMBL document CHEMBL1201862, “PubChem BioAssay data set” (2004).
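Compound exposure: 48 hours, 5 concentrations, 96-well plates. GI50: concentration for 50% inhibition of growth.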 Calls of active or inactive are those of the source. Rule as the data show it: active = GI50 up to about 1.1 µM and inactive = higher.

Tests used:
Assay in all cases: NCI tumour cell line growth inhibition, 48 h
[1] = tested on: A549
[2] = tested on: ACHN
[3] = tested on: COLO 205
[4] = tested on: HCT-116
[5] = tested on: HCT-15
[6] = tested on: HOP-62
[7] = tested on: KM12
[8] = tested on: MOLT-4
[9] = tested on: NCI-H23
[10] = tested on: OVCAR-8
[11] = tested on: RPMI-8226
[12] = tested on: SF-268
[13] = tested on: SK-OV-3
[14] = tested on: SN12C
[15] = tested on: SNB-19
[16] = tested on: SW-620
[17] = tested on: TK-10
[18] = tested on: U-251
[19] = tested on: UACC-257
[20] = tested on: NCI-H460

SMILES | GI50 [1] | GI50 [2] | GI50 [3] | GI50 [4] | GI50 [5] | GI50 [6] | GI50 [7] | GI50 [8] | GI50 [9] | GI50 [10] | GI50 [11] | GI50 [12] | GI50 [13] | GI50 [14] | GI50 [15] | GI50 [16] | GI50 [17] | GI50 [18] | GI50 [19] | GI50 [20]
N#CCc1c(F)c(F)c(F)c(F)c1F | > 100 µM (inactive) | > 100 µM (inactive) | > 100 µM (inactive) | > 100 µM (inactive) | > 100 µM | > 100 µM (inactive) | > 100 µM (inactive) | > 100 µM (inactive) | > 100 µM (inactive) | > 100 µM (inactive) | > 100 µM (inactive) | > 100 µM (inactive) | > 100 µM (inactive) | > 100 µM (inactive) | > 100 µM (inactive) | > 100 µM (inactive) | > 100 µM (inactive) | > 100 µM (inactive) | > 100 µM (inactive) | –
CC[C@]12C=CCN3CC[C@@]4(c5cc(Br)c(OC)c([N+](=O)[O-])c5N(C)[C@H]4[C@@](O)(C(=O)OC)[C@@H]1OC(C)=O)[C@@H]32 | 39.8 µM (inactive) | 62.4 µM (inactive) | 27.8 µM (inactive) | 45.8 µM (inactive) | 65.3 µM | 87.5 µM (inactive) | 47.6 µM (inactive) | 13.2 µM (inactive) | 56.9 µM (inactive) | 30.5 µM (inactive) | 6.52 µM (inactive) | 30.1 µM (inactive) | > 100 µM (inactive) | 88.7 µM (inactive) | 71.9 µM (inactive) | 23.8 µM (inactive) | > 100 µM (inactive) | 43.4 µM (inactive) | 33.3 µM (inactive) | 40.8 µM (inactive)
CCOC(=O)NC(OCc1ccccc1)(C(=O)OC)C(F)(F)F (configuration not stated) | > 100 µM (inactive) | > 100 µM (inactive) | > 100 µM (inactive) | > 100 µM (inactive) | > 100 µM | – | > 100 µM (inactive) | > 100 µM (inactive) | > 100 µM (inactive) | > 100 µM (inactive) | > 100 µM (inactive) | > 100 µM (inactive) | > 100 µM (inactive) | > 100 µM (inactive) | > 100 µM (inactive) | > 100 µM (inactive) | > 100 µM (inactive) | > 100 µM (inactive) | > 100 µM (inactive) | > 100 µM (inactive)
C/C=C/C1=CC(=O)C(O)C1O (configuration not stated) | 29 µM (inactive) | – | 22 µM (inactive) | 26.2 µM (inactive) | 27.6 µM | 47.6 µM (inactive) | 15.3 µM (inactive) | 28 µM (inactive) | 25.9 µM (inactive) | 24.8 µM (inactive) | 22.1 µM (inactive) | 26.5 µM (inactive) | 40.7 µM (inactive) | 23.1 µM (inactive) | 37.2 µM (inactive) | 27.2 µM (inactive) | – | 44.8 µM (inactive) | 29.4 µM (inactive) | 19.7 µM (inactive)
O=C1C[C@H](Sc2ccccc2)C2(OCCO2)[C@@H](Sc2ccccc2)C1 | 1.87 µM (inactive) | 1.77 µM (inactive) | 4.28 µM (inactive) | 1.6 µM (inactive) | 1.68 µM | 3.27 µM (inactive) | 1.79 µM (inactive) | 0.26 µM (active) | 2.09 µM (inactive) | 1.73 µM (inactive) | 0.743 µM (active) | 1.87 µM (inactive) | 11.5 µM (inactive) | 2.7 µM (inactive) | 11 µM (inactive) | 1.24 µM (inactive) | 1.95 µM (inactive) | 1.78 µM (inactive) | 1.8 µM (inactive) | 5.19 µM (inactive)
Cc1ccc(S(=O)(=O)N2c3ccccc3[C@H]3CCc4c([nH]c5ccccc45)[C@H]32)cc1 | > 100 µM (inactive) | > 100 µM (inactive) | > 100 µM (inactive) | > 100 µM (inactive) | – | 84.9 µM (inactive) | 17.9 µM (inactive) | 66.1 µM (inactive) | > 100 µM (inactive) | > 100 µM (inactive) | 29.2 µM (inactive) | > 100 µM (inactive) | > 100 µM (inactive) | > 100 µM (inactive) | > 100 µM (inactive) | > 100 µM (inactive) | > 100 µM (inactive) | > 100 µM (inactive) | > 100 µM (inactive) | > 100 µM (inactive)
CCCCCCCSc1nc2c(C(=O)OCC)ncn2c2ccccc12 | – | > 100 µM (inactive) | > 100 µM (inactive) | > 100 µM (inactive) | > 100 µM | 43.3 µM (inactive) | > 100 µM (inactive) | > 100 µM (inactive) | > 100 µM (inactive) | > 100 µM (inactive) | > 100 µM (inactive) | > 100 µM (inactive) | > 100 µM (inactive) | > 100 µM (inactive) | – | > 100 µM (inactive) | > 100 µM (inactive) | > 100 µM (inactive) | > 100 µM (inactive) | > 100 µM (inactive)
O=C(Nc1c(C(=O)NC2CCCCC2)[nH]c(=O)[nH]c1=O)c1ccc(Cl)cc1 | > 100 µM (inactive) | > 100 µM (inactive) | > 100 µM (inactive) | > 100 µM (inactive) | > 100 µM | > 100 µM (inactive) | 49.3 µM (inactive) | > 100 µM (inactive) | – | > 100 µM (inactive) | > 100 µM (inactive) | > 100 µM (inactive) | > 100 µM (inactive) | > 100 µM (inactive) | < 0.01 µM (active) | > 100 µM (inactive) | > 100 µM (inactive) | – | – | > 100 µM (inactive)
Cc1csc(/N=C(/NCCN2CCOCC2)Nc2nc(C)cs2)n1 | > 100 µM (inactive) | – | > 100 µM (inactive) | > 70.1 µM (inactive) | > 100 µM | > 100 µM (inactive) | > 100 µM (inactive) | > 100 µM (inactive) | > 100 µM (inactive) | > 100 µM (inactive) | > 100 µM (inactive) | > 100 µM (inactive) | > 100 µM (inactive) | > 100 µM (inactive) | > 100 µM (inactive) | > 100 µM (inactive) | – | > 100 µM (inactive) | > 100 µM (inactive) | > 100 µM (inactive)
Cc1ccc(/N=N/C(=N\NC(=O)c2ccc(C)cc2)c2ccc(N(CCC#N)CCC#N)cc2C)cc1 | 34.5 µM (inactive) | 46.7 µM (inactive) | 48.2 µM (inactive) | – | 33.5 µM | 34.4 µM (inactive) | 12.2 µM (inactive) | 39.4 µM (inactive) | 35.3 µM (inactive) | 17.7 µM (inactive) | 13 µM (inactive) | 22.5 µM (inactive) | 65.6 µM (inactive) | – | > 100 µM (inactive) | 39 µM (inactive) | 45.5 µM (inactive) | 14.8 µM (inactive) | 27.9 µM (inactive) | 23.8 µM (inactive)
COC(=O)C(C/C=C(\C)c1ccc(Cl)cc1)C(C)=O (configuration not stated) | 31 µM (inactive) | – | 59.8 µM (inactive) | 41.7 µM (inactive) | 37.5 µM | > 56 µM (inactive) | 37 µM (inactive) | 17.9 µM (inactive) | 35.5 µM (inactive) | 52 µM (inactive) | 24.2 µM (inactive) | 48.3 µM (inactive) | > 100 µM (inactive) | 56 µM (inactive) | > 100 µM (inactive) | 50.9 µM (inactive) | – | 26.1 µM (inactive) | 23 µM (inactive) | > 100 µM (inactive)
CCOC(=O)c1cc(C2CCN(Cc3ccccc3)C2=S)c(C(=O)C=[N+]=[N-])[nH]1 (configuration not stated) | 26.4 µM (inactive) | 27.2 µM (inactive) | 33.8 µM (inactive) | 40.5 µM (inactive) | 19.5 µM | 51.4 µM (inactive) | 55.5 µM (inactive) | 30.4 µM (inactive) | 21.7 µM (inactive) | 37.3 µM (inactive) | 45.9 µM (inactive) | 25.8 µM (inactive) | > 100 µM (inactive) | – | 28.8 µM (inactive) | 38.6 µM (inactive) | 35.9 µM (inactive) | 25.3 µM (inactive) | 25.8 µM (inactive) | 23.9 µM (inactive)
Fc1ccc2c(c1)SC1=Nc3sc4cc(F)ccc4[n+]3CN12 | 12.4 µM (inactive) | 20.6 µM (inactive) | 26.9 µM (inactive) | 22.5 µM (inactive) | 29.5 µM | 19.5 µM (inactive) | – | – | 17.5 µM (inactive) | 14.6 µM (inactive) | 0.437 µM (active) | 29.6 µM (inactive) | 22.4 µM (inactive) | 17.3 µM (inactive) | 16.4 µM (inactive) | 27.3 µM (inactive) | 18.8 µM (inactive) | 16.7 µM (inactive) | 18.9 µM (inactive) | 25.5 µM (inactive)
CCO[C@]12C[C@H](OC)[C@@]3(O)CC(C1[C@H]3O)C13C4C2[C@H](OC)C1[C@](COC)(CN4CC)[C@H](O)C[C@@H]3OC (some centres not stated) | > 100 µM (inactive) | 66.2 µM (inactive) | > 100 µM (inactive) | > 100 µM (inactive) | > 100 µM | > 100 µM (inactive) | – | > 100 µM (inactive) | > 100 µM (inactive) | > 100 µM (inactive) | > 100 µM (inactive) | > 100 µM (inactive) | > 100 µM (inactive) | > 100 µM (inactive) | > 100 µM (inactive) | > 100 µM (inactive) | > 100 µM (inactive) | – | > 100 µM (inactive) | > 100 µM (inactive)
C=CC(C)C1(CCCOCc2ccccc2)C(=S)N2CCC3(CC24CCCC14)OCCO3 (configuration not stated) | 16 µM (inactive) | 9.84 µM (inactive) | 28.5 µM (inactive) | – | > 100 µM | – | 12.9 µM (inactive) | 3.93 µM (inactive) | 6.1 µM (inactive) | 23.3 µM (inactive) | 2.72 µM (inactive) | 5.93 µM (inactive) | > 100 µM (inactive) | 91.6 µM (inactive) | 24.5 µM (inactive) | 31.6 µM (inactive) | 97.3 µM (inactive) | 34.1 µM (inactive) | 9.68 µM (inactive) | 26.3 µM (inactive)
